Laboratory results reported in patent US6355799B1, “Substituted benzene compounds, process for their preparation, and herbicidal and defoliant compositions containing them” (ISK Americas Incorporated, priority 1997, dated 2002).

Assays:
Assay type in all cases: in vivo
[1] = system: redroot pigweed (Amaranthus retroflexus, AMARE); experiment: Post-emerge test, greenhouse herbicide activity screening; conditions: phytotoxicity rating 0-100 (0 no damage, 100 complete death), 14 days after application
How it was run: (§1)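 Fourteen days after spraying, crop and weed injury was graded visually from 0, no effect, to 100, every plant dead. Test substances were dissolved in acetone and applied at 15–1000 g ai/ha with a flat-fan nozzle. Application was either pre-emergence, one day after sowing, or post-emergence at the 2–3 leaf stage.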

[2] = system: green foxtail (Setaria viridis, SETVI); experiment: as above; conditions: phytotoxicity rating 0-100 (0 no damage, 100 complete death), 14 days after application
How it was run: as §1

[3] = system: large crabgrass (Digitaria sanguinalis, DIGSA); experiment: as above; conditions: phytotoxicity rating 0-100 (0 no damage, 100 complete death), 14 days after application
How it was run: as §1

[4] = system: common ragweed (Ambrosia artemisizfolia L., AMBEL); experiment: as above; conditions: 250 g ai/ha; phytotoxicity rating 0-100 (0 no damage, 100 complete death), 14 days after application
How it was run: as §1

[5] = system: barnyardgrass (Echinochloa crus-galli, ECHCG); experiment: as above; conditions: phytotoxicity rating 0-100 (0 no damage, 100 complete death), 14 days after application
How it was run: as §1

[6] = system: sicklepod (Cassia obtusifolia, CASOB); experiment: as above; conditions: phytotoxicity rating 0-100 (0 no damage, 100 complete death), 14 days after application
How it was run: as §1

[7] = system: lambsquarters (Chenopodium album, CHEAL); experiment: as above; conditions: phytotoxicity rating 0-100 (0 no damage, 100 complete death), 14 days after application
How it was run: as §1

[8] = system: ivyleaf morningglory (Ipomoea hederacea, IPOHE); experiment: as above; conditions: phytotoxicity rating 0-100 (0 no damage, 100 complete death), 14 days after application
How it was run: as §1

[9] = system: johnsongrass (Sorghum halepense, SORHA); experiment: as above; conditions: phytotoxicity rating 0-100 (0 no damage, 100 complete death), 14 days after application
How it was run: as §1

[10] = system: velvetleaf (Abutilon theophrasti, ABUTH); experiment: as above; conditions: phytotoxicity rating 0-100 (0 no damage, 100 complete death), 14 days after application
How it was run: as §1

[11] = system: green foxtail (Setaria viridis, SETVI); experiment: Pre-emerge test, greenhouse herbicide activity screening; conditions: pre-emerge, rated 14 days after application, 0 = no damage, 100 = complete death
How it was run: (§2)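 Compounds in acetone were track-sprayed at 15–1000 g ai/ha: pre-emergence onto soil sown the previous day, then top-watered to incorporate and later bottom-watered; post-emergence onto 2–3 leaf plants with 0.25% v/v surfactant, bottom-watered only. Ratings on a 0–100 phytotoxicity scale were taken at day 14.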

[12] = system: large crabgrass (Digitaria sanguinalis, DIGSA); experiment: as above; conditions: pre-emerge, rated 14 days after application, 0 = no damage, 100 = complete death
How it was run: as §2

[13] = system: barnyardgrass (Echinochloa crus-galli, ECHCG); experiment: as above; conditions: pre-emerge, rated 14 days after application, 0 = no damage, 100 = complete death
How it was run: as §2

[14] = system: sicklepod (Cassia obtusifolia, CASOB); experiment: as above; conditions: pre-emerge, rated 14 days after application, 0 = no damage, 100 = complete death
How it was run: as §2

[15] = system: lambsquarters (Chenopodium album, CHEAL); experiment: as above; conditions: pre-emerge, rated 14 days after application, 0 = no damage, 100 = complete death
How it was run: as §2

[16] = system: ivyleaf morningglory (Ipomoea hederacea, IPOHE); experiment: as above; conditions: pre-emerge, rated 14 days after application, 0 = no damage, 100 = complete death
How it was run: as §2

[17] = system: johnsongrass (Sorghum halepense, SORHA); experiment: as above; conditions: pre-emerge, rated 14 days after application, 0 = no damage, 100 = complete death
How it was run: as §2

[18] = system: velvetleaf (Abutilon theophrasti, ABUTH); experiment: as above; conditions: pre-emerge, rated 14 days after application, 0 = no damage, 100 = complete death
How it was run: as §2

[19] = system: field corn (Zea mays L., var. Dekalb 535, CORN); experiment: Post-emerge test, crop safety; conditions: phytotoxicity rating 0-100 (0 no damage, 100 complete death), 14 days after application
How it was run: (§3)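 Rating: 0–100 visual injury, 14 DAA. Application: acetone, 187 l/ha, 15–1000 g ai/ha, flat-fan track sprayer with nozzle 40–45 cm above soil or canopy. Post-emerge runs used 0.25% v/v surfactant on 2–3 leaf plants.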

[20] = system: upland rice (Oryza sp., var. Tebonnet, RICE); experiment: Post-emerge test, crop safety; conditions: phytotoxicity rating 0-100 (0 no damage, 100 complete death), 14 days after application
How it was run: as §3

[21] = system: redroot pigweed (Amaranthus retroflexus, AMARE); experiment: Pre-emerge test, greenhouse herbicide activity screening; conditions: pre-emerge, rated 14 days after application, 0 = no damage, 100 = complete death
How it was run: (§4)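 Herbicidal damage is scored 0 (none) to 100 (complete plant death) two weeks after a simulated field spray. Rates span 15–1000 g ai/ha, delivered in acetone at 187 l/ha. For post-emergence treatments, plants have 2–3 leaves and the spray carries 0.25% v/v non-ionic surfactant.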

[22] = system: field corn (Zea mays L., var. Dekalb 535, CORN); experiment: Pre-emerge test, crop safety; conditions: pre-emerge, rated 14 days after application, 0 = no damage, 100 = complete death
How it was run: as §4

[23] = system: upland rice (Oryza sp., var. Tebonnet, RICE); experiment: Pre-emerge test, crop safety; conditions: pre-emerge, rated 14 days after application, 0 = no damage, 100 = complete death
How it was run: as §4

With `COc1c(Cl)cc(F)c(-n2c(=O)cc(C(F)(F)F)n(C)c2=O)c1NC(=O)C1CCCCC1` [2-19] the “Post-emerge Herbicidal Activity AMARE” value ([1]; 63 g ai/ha) was 40, the “Post-emerge Herbicidal Activity AMARE” value ([1]; 250 g ai/ha) was 75 and the “Post-emerge Herbicidal Activity SETVI” value ([2]; 63 g ai/ha) was 0. For the same compound, the “Post-emerge Herbicidal Activity SETVI” value ([2]; 250 g ai/ha) was 30, the “Post-emerge Herbicidal Activity DIGSA” value ([3]; 63 g ai/ha) was 0 and the “Post-emerge Herbicidal Activity DIGSA” value ([3]; 250 g ai/ha) was 0. The “Post-emerge Herbicidal Activity AMBEL” value [4] was 30, the “Post-emerge Herbicidal Activity ECHCG” value ([5]; 63 g ai/ha) was 0 and the “Post-emerge Herbicidal Activity ECHCG” value ([5]; 250 g ai/ha) was 0. For the same compound, the “Post-emerge Herbicidal Activity CASOB” value ([6]; 63 g ai/ha) was 0, the “Post-emerge Herbicidal Activity CASOB” value ([6]; 250 g ai/ha) was 10 and the “Post-emerge Herbicidal Activity CHEAL” value ([7]; 63 g ai/ha) was 50. The “Post-emerge Herbicidal Activity CHEAL” value ([7]; 250 g ai/ha) was 50, the “Post-emerge Herbicidal Activity IPOHE” value ([8]; 63 g ai/ha) was 70 and the “Post-emerge Herbicidal Activity IPOHE” value ([8]; 250 g ai/ha) was 100. The “Post-emerge Herbicidal Activity SORHA” value ([9]; 63 g ai/ha) was 0, the “Post-emerge Herbicidal Activity SORHA” value ([9]; 250 g ai/ha) was 0 and the “Post-emerge Herbicidal Activity ABUTH” value ([10]; 63 g ai/ha) was 90. The “Post-emerge Herbicidal Activity ABUTH” value ([10]; 250 g ai/ha) was 100, the “Pre-emerge Herbicidal Activity SETVI (phytotoxicity rating, scale 0-100)” value ([11]; 63 g ai/ha) was 20 and the “Pre-emerge Herbicidal Activity SETVI (phytotoxicity rating, scale 0-100)” value ([11]; 250 g ai/ha) was 100. For the same compound, the “Pre-emerge Herbicidal Activity DIGSA (phytotoxicity rating, scale 0-100)” value ([12]; 63 g ai/ha) was 40, the “Pre-emerge Herbicidal Activity DIGSA (phytotoxicity rating, scale 0-100)” value ([12]; 250 g ai/ha) was 100 and the “Pre-emerge Herbicidal Activity ECHCG (phytotoxicity rating, scale 0-100)” value ([13]; 63 g ai/ha) was 0. For the same compound, the “Pre-emerge Herbicidal Activity ECHCG (phytotoxicity rating, scale 0-100)” value ([13]; 250 g ai/ha) was 50, the “Pre-emerge Herbicidal Activity CASOB (phytotoxicity rating, scale 0-100)” value ([14]; 63 g ai/ha) was 0 and the “Pre-emerge Herbicidal Activity CASOB (phytotoxicity rating, scale 0-100)” value ([14]; 250 g ai/ha) was 10. For the same compound, the “Pre-emerge Herbicidal Activity CHEAL (phytotoxicity rating, scale 0-100)” value ([15]; 63 g ai/ha) was 95, the “Pre-emerge Herbicidal Activity CHEAL (phytotoxicity rating, scale 0-100)” value ([15]; 250 g ai/ha) was 100 and the “Pre-emerge Herbicidal Activity IPOHE (phytotoxicity rating, scale 0-100)” value ([16]; 63 g ai/ha) was 10. For the same compound, the “Pre-emerge Herbicidal Activity IPOHE (phytotoxicity rating, scale 0-100)” value ([16]; 250 g ai/ha) was 100, the “Pre-emerge Herbicidal Activity SORHA (phytotoxicity rating, scale 0-100)” value ([17]; 63 g ai/ha) was 0 and the “Pre-emerge Herbicidal Activity SORHA (phytotoxicity rating, scale 0-100)” value ([17]; 250 g ai/ha) was 60. The “Pre-emerge Herbicidal Activity ABUTH (phytotoxicity rating, scale 0-100)” value ([18]; 63 g ai/ha) was 90, the “Pre-emerge Herbicidal Activity ABUTH (phytotoxicity rating, scale 0-100)” value ([18]; 250 g ai/ha) was 100 and the “Post-emerge Herbicidal Activity CORN (crop damage)” value ([19]; 63 g ai/ha) was 0. For the same compound, the “Post-emerge Herbicidal Activity CORN (crop damage)” value ([19]; 250 g ai/ha) was 0, the “Post-emerge Herbicidal Activity RICE (crop damage)” value ([20]; 63 g ai/ha) was 0 and the “Post-emerge Herbicidal Activity RICE (crop damage)” value ([20]; 250 g ai/ha) was 20. For the same compound, the “Pre-emerge Herbicidal Activity AMARE (phytotoxicity rating, scale 0-100)” value ([21]; 63 g ai/ha) was 80, the “Pre-emerge Herbicidal Activity AMARE (phytotoxicity rating, scale 0-100)” value ([21]; 250 g ai/ha) was 100 and the “Pre-emerge crop damage CORN (phytotoxicity rating, scale 0-100)” value ([22]; 63 g ai/ha) was 5. For the same compound, the “Pre-emerge crop damage CORN (phytotoxicity rating, scale 0-100)” value ([22]; 250 g ai/ha) was 40, the “Pre-emerge crop damage RICE (phytotoxicity rating, scale 0-100)” value ([23]; 63 g ai/ha) was 10 and the “Pre-emerge crop damage RICE (phytotoxicity rating, scale 0-100)” value ([23]; 250 g ai/ha) was 60.
